Activity calls are given as the source filed them. No rule for the calls is given here.
How the values were obtained:
[1] = inhibitors of PAF-induced NFkB signaling in CF airway cells, dose response, cell-based, uHTS hits, panel, cytotoxicity readout (AID 624344); conditions: CF bronchial epithelial cells, PAF-induced NFkB reporter inhibition; with PAF, mean of runs
Cytotoxicity = test: as above; conditions: CF bronchial epithelial cells, mean of runs

Row | Compound | IC50 [1] | IC50 (Cytotoxicity)
1 | CC(=O)c1c(O)cc(O)c(C(C)=O)c1O | 5.34 µM | 5.8 µM
2 | COc1ccc(N(Cc2cc(=O)[nH]c3ccccc23)C(=O)CCl)cc1 | 2.89 µM | 4.29 µM
3 | c1ccc2c(-c3ccc4nncn4c3)cncc2c1 | 1.42 µM | > 79 µM (inactive)
4 | CCCc1nnc(NC(=O)c2nc(S(=O)(=O)Cc3ccc(C)cc3)ncc2Cl)s1 | 1.23 µM | 3.08 µM
5 | COc1cccc(-c2nnc3sc(C4CCCCC4)nn23)c1 | 0.82 µM | 10.6 µM
6 | COc1ccc(N=Cc2cc3c(cc2O)OC(N)=C(C#N)C3c2ccccc2)cc1 (configuration not stated) | 3.4 µM | 59.8 µM (inactive)
7 | C#CCN(C[C@@H]1[C@@H](OC(=O)NCc2ccco2)[C@@H](OC(=O)NCc2ccco2)Cn2c(=O)ccc(=O)n21)S(=O)(=O)c1ccc(C)cc1 | 3.11 µM | 18.3 µM
8 | O=S(=O)(Nc1cccc2cccnc12)c1ccccc1 | 1.69 µM | 44.5 µM
9 | CN(C)c1ccnc2sc3c(=O)n(Cc4ccccc4)cnc3c12 | 1.27 µM | > 79 µM (inactive)
10 | CCCC1/C(=N/O)CC(c2ccccc2)NC1c1ccccc1 (configuration not stated) | 5.52 µM | 6.23 µM
11 | CCc1cc(SC#N)cc(C)c1NC(=O)CCl | 5.47 µM | 43.5 µM
12 | COc1cc(/C=N/NC(=O)Nc2cccc3nsnc23)cc(OC)c1OC | 2.53 µM | 14.7 µM
13 | COc1cc2c(c(OC)c1OC)-c1ccc(SC)c(=O)cc1C(NC(=O)C(F)(F)F)CC2 (configuration not stated) | inactive | > 79 µM (inactive)
14 | COc1cc(O)c(CC=C(C)C)c(O)c1C(=O)CCc1ccc(O)cc1 | 5 µM | 41.5 µM
15 | COCCNc1nc(Oc2cncc(Cl)c2)c2sccc2n1 | 2.9 µM | 29.1 µM
16 | CC(C)C[C@@H](CN1CCCC1CN1C(=S)NC[C@@H]1Cc1ccc(O)cc1)N1C[C@H](Cc2ccc(O)cc2)N(CC2CCCCC2)C1=S (some centres not stated) | 9.1 µM | 19.8 µM
17 | Cc1ncc(CO)c2c1Oc1nc(-c3ccccc3F)nc(SCC(=O)N(C)c3ccccc3)c1C2 | 4.17 µM | 11.3 µM
18 | Cc1nc(N2CCC(C(N)=O)CC2)c2c(-c3cccs3)csc2n1 | 3.23 µM | 33.5 µM
19 | O=C(Nc1ccc2ccccc2c1)c1ccccc1O | 5.07 µM | 2.5 µM
20 | COc1ccc(OC)c(Nc2ncnc3ccc(Br)cc23)c1 | 4.6 µM | 13.8 µM
21 | Cn1c(=O)c2c(nc(Oc3ccc4ccccc4c3)n2C)n(C)c1=O | 9.64 µM | > 79 µM (inactive)

Row | Compound | IC50 [1] | IC50 (Cytotoxicity)
22 | C[C@@H]1CC=C[C@H]2[C@H]1C(=O)N(Cc1ccccc1)[C@H]2c1ccc2ccccc2c1Br | 5.04 µM | 12.9 µM
23 | CS(=O)(=O)c1ccc2nc(NC(=O)Nc3cccc(Cl)c3)sc2c1 | 3.67 µM | 3.28 µM
24 | Nc1ncnc2c1c(-c1ccc(Oc3ccccc3)cc1)cn2C1CCCC1 | 6.66 µM | 11.3 µM
25 | COc1ccc(OC)c(C2CC(=O)c3c([nH]c(C(=O)OC(C)C)c3C)C2)c1 (configuration not stated) | inactive | > 79 µM (inactive)
26 | N#Cc1c(Br)n(C2OC(CO)C(O)C2O)c2ncnc(N)c12 (configuration not stated) | 0.444 µM | 3.58 µM
27 | Cc1ccccc1C(=O)N1CCN(c2ccc(NC(=O)c3cccc(OC(C)C)c3)cc2)CC1 | 6.7 µM | > 79 µM (inactive)
28 | c1ccc(-c2nc3nonc3nc2-c2ccccc2)cc1 | 12.2 µM | 45.4 µM
29 | CCOc1cc2c(cc1O)C(=NOC)CC1C2CCC2(C)C(O)CCC12 (configuration not stated) | 7.69 µM | > 79 µM (inactive)
30 | O=C(Nc1ccccc1)Nc1ncc([N+](=O)[O-])s1 | 2.73 µM | 12.6 µM
31 | C=Cc1ccc(CC2(C)C(=O)Nc3ccc(-c4cccnc4)cc32)cc1 (configuration not stated) | 3.36 µM | 41.9 µM
32 | CCC(=NCCc1c(C)[nH]c2ccc(C)cc12)C1=C(O)CC(c2ccccc2)CC1=O (configuration not stated) | 7.89 µM | > 79 µM (inactive)
33 | O=C(Nc1ccc(OCC(=O)N2CCOCC2)cc1)c1cncc(Br)c1 | 6.67 µM | > 79 µM (inactive)
34 | CC(=O)c1c(O)cc2c3c1OC(C)(C)C1CCC(C)(CC31)O2 (configuration not stated) | 2.73 µM | 53.5 µM (inactive)
35 | COc1cncc(-c2cnc3sc(NCCc4ccccn4)nn23)c1 | 1.53 µM | > 79 µM (inactive)
36 | COc1ccc(/C=N/Nc2nc(-c3cccnc3)nc3ccccc23)cc1OC | 3 µM | 8.04 µM
37 | Cn1c(Sc2ccc(Br)cc2)c(C=O)c2ccccc21 | 1.4 µM | 5.64 µM
38 | NS(=O)(=O)c1ccc(CCNc2nn3c(-c4cccc(OC(F)(F)F)c4)cnc3s2)cc1 | 3.64 µM | 19.7 µM
39 | Clc1cccc(Nc2ncnc3ccc(Br)cc23)c1 | 3.53 µM | 15.1 µM
40 | O=C(Nc1nnc(S(=O)(=O)N2CCCCCC2)s1)c1cccc(Br)c1 | 2.68 µM | 7.27 µM
41 | COc1ccc(NC(=O)Cn2ncn3nc(-c4ccc(OC)cc4)cc3c2=O)cc1 | 6.69 µM | 5.34 µM
